Assays:
[1] = molecular target: T1, rat MTP (microsomal triglyceride transfer protein) (Rattus norvegicus, UniProt D4A1W8); experiment: inhibition of MTP (triglyceride transfer from donor vesicles to acceptor vesicles); format: biochemical; conditions: soluble rat MTP, 37° C., 45 min, radiolabeled triglyceride transfer
T1 construct: homogenate (120 g/210 mL) of rat liver; from tissue; host or cells: rat liver microsomes, deoxycholate-released soluble protein
T1 sequence (D4A1W8 22-896): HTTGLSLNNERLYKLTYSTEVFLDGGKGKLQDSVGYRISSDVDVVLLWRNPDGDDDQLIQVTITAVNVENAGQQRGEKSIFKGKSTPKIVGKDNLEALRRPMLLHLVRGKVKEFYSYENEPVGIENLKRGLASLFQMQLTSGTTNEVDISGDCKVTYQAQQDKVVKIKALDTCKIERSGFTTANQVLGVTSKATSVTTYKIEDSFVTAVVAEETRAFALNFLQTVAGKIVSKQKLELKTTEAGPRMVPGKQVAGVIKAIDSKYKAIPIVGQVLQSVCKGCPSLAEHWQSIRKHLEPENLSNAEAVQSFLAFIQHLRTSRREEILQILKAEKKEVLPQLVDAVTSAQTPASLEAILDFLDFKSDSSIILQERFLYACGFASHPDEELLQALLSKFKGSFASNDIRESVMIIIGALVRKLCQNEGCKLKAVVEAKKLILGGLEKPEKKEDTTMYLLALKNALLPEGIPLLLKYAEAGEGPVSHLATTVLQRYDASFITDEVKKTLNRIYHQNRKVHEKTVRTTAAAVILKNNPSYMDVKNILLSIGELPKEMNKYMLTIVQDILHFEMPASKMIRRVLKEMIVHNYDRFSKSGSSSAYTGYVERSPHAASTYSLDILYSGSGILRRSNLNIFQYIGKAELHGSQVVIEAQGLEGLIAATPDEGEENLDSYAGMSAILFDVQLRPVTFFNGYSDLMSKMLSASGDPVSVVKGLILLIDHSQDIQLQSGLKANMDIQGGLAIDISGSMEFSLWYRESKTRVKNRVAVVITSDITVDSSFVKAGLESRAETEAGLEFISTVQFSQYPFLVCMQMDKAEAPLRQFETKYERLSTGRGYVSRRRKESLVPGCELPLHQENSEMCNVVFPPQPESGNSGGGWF
T1 sequence (P04785 20-509 partner): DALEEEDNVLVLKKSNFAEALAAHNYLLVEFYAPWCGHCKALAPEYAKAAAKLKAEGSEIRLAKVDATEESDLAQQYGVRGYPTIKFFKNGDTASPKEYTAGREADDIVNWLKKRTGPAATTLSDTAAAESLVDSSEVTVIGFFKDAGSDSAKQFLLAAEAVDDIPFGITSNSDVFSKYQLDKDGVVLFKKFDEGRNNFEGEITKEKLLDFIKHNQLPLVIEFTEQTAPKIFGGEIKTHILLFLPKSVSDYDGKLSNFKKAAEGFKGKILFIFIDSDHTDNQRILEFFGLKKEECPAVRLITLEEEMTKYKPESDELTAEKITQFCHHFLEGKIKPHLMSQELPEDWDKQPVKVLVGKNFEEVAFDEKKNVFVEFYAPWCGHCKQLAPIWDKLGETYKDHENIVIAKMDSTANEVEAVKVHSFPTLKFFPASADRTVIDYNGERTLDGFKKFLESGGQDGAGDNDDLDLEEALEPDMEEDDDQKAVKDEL
Procedure: The inhibition of MTP is measured as follows:
Inhibition of the lipid transfer activity of MTP can be quantitated by measuring the inhibition of transfer of radiolabeled triglyceride from donor vesicles to acceptor vesicles in presence of soluble rat MTP. The procedure for preparing MTP is based on the method of Wetterau and Zilversmit (Biochim. Biophys. Acta (1986) 875:610). Briefly rats are decapitated under ether anesthesia. The liver is placed in ice cold sucrose buffer (contains 0.25M sucrose, 50 mM Tris Hcl, 1 mM EDTA, 0.02% sodium azide, pH 7.4) rinsed several times with the sucrose buffer.
All subsequent steps are performed on ice. A 57% homogenate (120 g/210 mL) of rat liver in 0.25 M sucrose buffer is prepared by using a Potter-Elvehjem homogenizer. The homogenate is then centrifuged at 4° C. for 30 min at 13,000×g to remove large cellular organells. The supernatant is then centrifuged for 90 min at 105,000×g to pellet the microsomes. The pellet is resuspended in 10 mM Tris-HCl buffer pH 8.6. and centrifuged for 90 min at 105,000×g. The washed pellet is then resuspended in 1 mM Tris buffer (pH 8.6) and centrifuged for 2 hrs. […] The protein content is measured using the Sigma Lowry micro total protein method and reagents (Sigma Cat. # 690A). […]
MTP activity is measured using a MTP transfer assay. […]

[2] = tested on: apolipoprotein B (Apo B) secretion, Hep G2 cells; experiment: inhibition of the cellular secretion of Apo B (Hep G2 cells, ELISA); format: cell-based; conditions: Homo sapiens, HepG2, 24 h, secreted Apo B by ELISA
Procedure: The inhibition of the cellular secretion of Apo B is determined as follows:
Hep G2 cells are maintained in T-75 culture flasks (Corning) in Dulbecco's modified Eagles Medium (DMEM; Gibco-BRL) supplemented with 10% fetal calf serum Gibco-BRL) in a humidified atmosphere containing 5% carbon dioxide until they are confluent. For testing compounds, Hep G2 cells from the T-75 maintenance flasks are harvested and seeded in 96-well culture plates (Corning) and are grown for 72 hours (approximately 80% confluent). Test compound is dissolved at 1 mg/ml (w/v;1-5 mM) in dimethyl sulfoxide DMSO; Sigma) as stock solution. Prior to use, the stock solution of compound is diluted to 133 μM with DMSO and diluted further with growth medium (DMEM containing 10% fetal calf serum) to obtain 1 μM of compound in 100 μL of growth medium. 100 μL of growth medium containing the test compound is added to separate wells of a 96-well culture plate containing Hep G2 cells. For testing dose response of compound, a stock solution of test compound in DMSO is made at 665 μM and various dilutions from this solution are made in growth medium to obtain range of concentration of compound from 0.01 μM to 5 μM in 100 μL of growth medium. 100 μL of the growth medium containing different concentrations of test compound is added to separate wells containing Hep G2 cells. Twenty-four hours later, growth medium is collected and assayed by specific ELISA for apolipoprotein B (Apo B). At the same time Hep G2 cells from wells are assayed for protein (BioRad; cat. # 500-0006) and/or cell viability (Promega; CellTiter 96 Aqueous, cat. # G3581). Inhibitors are identified as compounds that decrease Apo B secretion into the medium without decreasing the total cellular protein and/or cell viability. […] Absorbance of each well is read at 405 nm using a Beckman Biomek workstation. […]

[3] = in vivo triglyceride lowering effect; conditions: 10 mg/kg p.o.
Description: The in vivo serum triglyceride lowering effect of the compounds of the invention can be determined by measuring their effect on triglyceride levels in mice, rats or dogs according to methodology well known in the art, e.g., in a model of pre-established hypertriglyceridemia in fructose fed rats or in normolipidemic rats.

[4] = in vivo cholesterol lowering effect; conditions: 10 mg/kg p.o.
Description: The in vivo serum cholesterol lowering effect of the compounds of the invention can be determined by measuring their effect on cholesterol levels in mice, rats or dogs according to methodology well known in the art, e.g., in normolipidemic rats.

`Cc1cccc(C(=O)Nc2ccc3c(c2)C[C@@H](NS(C)(=O)=O)C3)c1-c1ccc(C(F)(F)F)cc1` [Example 13b] showed an IC50 [1] of roughly 60 nM and an IC50 [2] of roughly 1.8 nM.

`CS(=O)(=O)N[C@@H]1Cc2ccc(NC(=O)c3cc(F)ccc3-c3ccc(C(F)(F)F)cc3)cc2C1` [13(al)] showed an IC50 [2] of roughly 3 nM.

With `COC(=O)N[C@@H]1Cc2ccc(NC(=O)c3cccc(C)c3-c3ccc(C(F)(F)F)cc3)cc2C1` [13(i), (R)-6-methyl-4'-trifluoromethylbiphenyl-2-carboxylic acid (2-methoxycarbonylaminoindan-5-yl)-amide] the lowers plasma triglycerides [3] was “lowers both plasma triglycerides and cholesterol”, the IC50 [1] was roughly 70 nM and the IC50 [2] was roughly 0.7 nM. The lowers plasma cholesterol [4] was “lowers both plasma triglycerides and cholesterol”.

Source: patent publication US6197798A, “Amino-benzocycloalkane derivatives” (Novartis AG, priority 1999, dated 2001)
